A word on the inhibition: it is the drop in the measured response relative to a control, in per cent. The IC50 is the point on the concentration scale where inhibition reaches its midpoint.

Assay [1] relates to 266 human kinases. The format is biochemical. The settings on record: peptide at 100 μM, 266 human kinases. As to the method:
(§1) Every kinase activity measurement was conducted in duplicate.
(§2) IC50 (half maximal inhibitory concentrations) value for the MK2 inhibitor peptides identified below was determined using Millipore's IC50 Profiler Express service. […] Specifically, in these assays, a positively charged substrate is phosphorylated with a radiolabeled phosphate group from an ATP if the kinase is not inhibited by an inhibitor peptide. The positively charged substrate then is attracted to a negatively charged filter membrane, quantified with a scintillation counter, and compared to a 100% activity control.

Assay [2] concerns the target Calcium/Calmodulin-Dependent Protein Kinase I (CaMKI) (Homo sapiens, UniProt Q14012). In words: biochemical. The settings on record: read-out: inhibition of kinase activity of CaMKI. The protocol:
as §1, §2

Assay [3] deals with (Homo sapiens, UniProt Q15746). The format is biochemical. As to conditions: MLCK(h); peptide 100 μM. The protocol:
as §1, §2

In assay [4] the target is Ca2+/calmodulin-dependent protein kinase II (CaMKII). The settings on record: cited from earlier work.
In assay [5] the test system is advanced NSCLC. The settings on record: patients with advanced NSCLC; P=0.04; cited from earlier work.

Where no end group is shown, it is not given here.

Sequence of Calcium/Calmodulin-Dependent Protein Kinase I (CaMKI) (Q14012 whole entry): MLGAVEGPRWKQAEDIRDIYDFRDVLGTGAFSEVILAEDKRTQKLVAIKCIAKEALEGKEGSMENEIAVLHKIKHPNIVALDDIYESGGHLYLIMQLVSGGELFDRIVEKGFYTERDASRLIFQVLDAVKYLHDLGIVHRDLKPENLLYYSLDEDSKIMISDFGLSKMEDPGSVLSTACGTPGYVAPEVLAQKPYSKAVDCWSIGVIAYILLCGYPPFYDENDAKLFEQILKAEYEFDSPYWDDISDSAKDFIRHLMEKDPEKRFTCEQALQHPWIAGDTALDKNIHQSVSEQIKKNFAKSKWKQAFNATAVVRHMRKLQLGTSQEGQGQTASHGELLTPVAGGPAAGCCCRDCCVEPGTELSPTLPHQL
Sequence of (Homo sapiens, UniProt Q15746) (Q15746 whole entry): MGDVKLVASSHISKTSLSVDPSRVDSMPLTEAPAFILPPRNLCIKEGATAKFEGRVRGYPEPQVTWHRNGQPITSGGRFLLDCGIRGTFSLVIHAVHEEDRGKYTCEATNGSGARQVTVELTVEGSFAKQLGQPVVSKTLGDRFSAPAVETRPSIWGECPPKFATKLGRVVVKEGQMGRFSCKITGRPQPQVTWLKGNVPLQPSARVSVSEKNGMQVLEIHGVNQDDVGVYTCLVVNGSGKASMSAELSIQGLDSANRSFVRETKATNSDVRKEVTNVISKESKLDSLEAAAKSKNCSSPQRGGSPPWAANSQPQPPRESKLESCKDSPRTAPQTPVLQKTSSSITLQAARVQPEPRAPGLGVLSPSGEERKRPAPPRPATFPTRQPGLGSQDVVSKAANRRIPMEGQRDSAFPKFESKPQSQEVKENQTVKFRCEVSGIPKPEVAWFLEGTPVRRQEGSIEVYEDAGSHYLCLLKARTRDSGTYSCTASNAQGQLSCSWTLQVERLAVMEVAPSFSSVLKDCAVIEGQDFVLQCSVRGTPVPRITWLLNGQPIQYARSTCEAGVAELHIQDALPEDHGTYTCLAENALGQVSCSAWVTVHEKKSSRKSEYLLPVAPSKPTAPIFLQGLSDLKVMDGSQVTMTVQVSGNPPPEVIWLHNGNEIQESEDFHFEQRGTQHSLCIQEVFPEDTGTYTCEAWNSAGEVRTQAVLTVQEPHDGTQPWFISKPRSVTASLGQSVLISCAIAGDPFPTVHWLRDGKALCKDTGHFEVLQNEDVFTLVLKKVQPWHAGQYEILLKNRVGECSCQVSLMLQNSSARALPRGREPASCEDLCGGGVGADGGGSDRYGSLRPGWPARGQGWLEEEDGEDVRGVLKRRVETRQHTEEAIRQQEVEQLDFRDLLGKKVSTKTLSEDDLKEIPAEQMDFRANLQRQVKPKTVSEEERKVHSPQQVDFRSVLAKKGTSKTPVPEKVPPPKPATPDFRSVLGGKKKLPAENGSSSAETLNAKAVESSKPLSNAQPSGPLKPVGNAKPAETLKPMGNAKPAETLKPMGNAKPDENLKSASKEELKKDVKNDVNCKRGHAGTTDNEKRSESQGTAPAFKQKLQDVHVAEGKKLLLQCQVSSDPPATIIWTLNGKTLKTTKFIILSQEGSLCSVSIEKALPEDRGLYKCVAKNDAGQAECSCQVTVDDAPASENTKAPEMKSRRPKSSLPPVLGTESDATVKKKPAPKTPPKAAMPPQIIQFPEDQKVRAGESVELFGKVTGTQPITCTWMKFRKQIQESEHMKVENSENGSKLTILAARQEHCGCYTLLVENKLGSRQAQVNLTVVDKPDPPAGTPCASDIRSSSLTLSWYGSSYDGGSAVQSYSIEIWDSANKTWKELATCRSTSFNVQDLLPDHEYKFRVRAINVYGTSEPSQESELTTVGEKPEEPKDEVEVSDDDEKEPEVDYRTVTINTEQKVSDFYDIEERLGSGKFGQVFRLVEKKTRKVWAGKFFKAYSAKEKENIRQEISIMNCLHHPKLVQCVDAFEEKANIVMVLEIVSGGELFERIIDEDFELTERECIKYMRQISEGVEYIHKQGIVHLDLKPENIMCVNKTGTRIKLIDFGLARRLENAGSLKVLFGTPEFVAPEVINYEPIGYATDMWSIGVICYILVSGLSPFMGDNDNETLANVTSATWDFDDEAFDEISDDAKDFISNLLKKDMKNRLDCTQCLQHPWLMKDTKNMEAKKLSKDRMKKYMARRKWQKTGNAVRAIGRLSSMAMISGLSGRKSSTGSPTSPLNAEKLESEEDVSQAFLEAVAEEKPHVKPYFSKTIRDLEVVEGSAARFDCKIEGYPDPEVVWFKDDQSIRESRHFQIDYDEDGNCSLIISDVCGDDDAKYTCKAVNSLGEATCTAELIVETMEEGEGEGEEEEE

On to FAKLAARLYRKALARQLGVAA [MMI-0300], for which, in assay [1], the “off-target kinase inhibition (specificity)” value (“off-target kinase inhibition” for short) was “very limited off-target kinase inhibition”.
For the substance “HRRIKAWLKKIKALARQLGVAA (Mammalian) [MMI-0500]”, the “off-target kinase inhibition” value in assay [1] is “very limited off-target kinase inhibition”.
KAFAKLAARLYRKALARQLGVAA [MMI-0400]: the “off-target kinase inhibition” value in assay [1] was “very limited off-target kinase inhibition”.
Turning to YARAAARQARAKALARQLGVAA [MMI-0100], the inhibition at 100 µM in assay [2] was > 65%. The “% activity” value in assay [3] is 85%.
As for “YARAAARQARAKALNRQLGVA (Mammalian) [MMI-0200]”, in assay [1], the “off-target kinase inhibition” value is recorded as “very limited off-target kinase inhibition”.
Take “autocamtide-2 related inhibitory peptide [AIP]”: the 50% inhibitory concentration (IC50) in assay [4] was 0.1 µM.
In the case of cisplatin/vinorelbine, the overall survival in assay [5] is recorded as 10.1 months.

The values above are taken from patent publication US9999655B2, “Use of MKS inhibitor peptide-containing compositions for treating non-small cell lung cancer with same” (Moerae Matrix, Inc., priority 2015, dated 2018).
